The supplement of paper PMC13207355

Columns and labels:
Conditions in all cases: exposure time: 72 h
[1] = system: E13 (patient-derived glioblastoma stem cells of classical subtype); experiment: surviving fraction (nuclei count normalised to DMSO); higher = more cells surviving (less toxic)
[2] = system: E31 (patient-derived glioblastoma stem cells of proneural subtype); experiment: as above
[3] = system: FT3469 (normal neural stem cell line); experiment: as above
[4] = system: E34 (patient-derived glioblastoma stem cells of proneural subtype); experiment: as above
[5] = system: E57 (patient-derived glioblastoma stem cells of mesenchymal subtype); experiment: as above
[6] = system: E21 (patient-derived glioblastoma stem cells of mesenchymal subtype); experiment: as above
[7] = system: E28 (patient-derived glioblastoma stem cells of classical subtype); experiment: as above
[8] = system: E13; experiment: phenotypic distance (Euclidean, principal components) from DMSO controls (arbitrary units); higher = stronger morphological change
[9] = system: E31; experiment: as above
[10] = system: FT3469; experiment: as above
[11] = system: E34; experiment: as above
[12] = system: E57; experiment: as above
[13] = system: E21; experiment: as above
[14] = system: E28; experiment: as above
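Throughout, for phenotypic distance (Euclidean, principal components) from DMSO controls: cell Painting imaging in 384-well plates, CellProfiler features reduced to at least 20 principal components, Euclidean distance versus same-plate DMSO vehicle wells (0.1% v/v), median over six images per well.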
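Throughout, for surviving fraction (nuclei count normalised to DMSO): nuclei counted by high-content imaging of Hoechst-stained cells in laminin-coated 384-well plates, relative to 0.1% DMSO vehicle wells, with staurosporine as cell-death control.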

C[C@@H](O[C@H]1OCCN(Cc2n[nH]c(=O)[nH]2)[C@H]1c1ccc(F)cc1)c1cc(C(F)(F)F)cc(C(F)(F)F)c1 [Aprepitant]
Conditions	phenotypic distance	surviving fraction
[1], 4.1 nM	–	0.928
[1], 12.3 nM	–	0.902
[1], 37 nM	–	0.98
[1], 111.1 nM	–	0.996
[1], 333.3 nM	–	0.901
[1], 1000 nM	–	0.903
[1], 3000 nM	–	0.856
[2], 4.1 nM	–	1.03
[2], 12.3 nM	–	0.789
[2], 37 nM	–	1.01
[2], 111.1 nM	–	0.981
[2], 333.3 nM	–	1.07
[2], 1000 nM	–	1.04
[2], 3000 nM	–	1
[3], 4.1 nM	–	0.843
[3], 12.3 nM	–	0.823
[3], 37 nM	–	0.935
[3], 111.1 nM	–	0.829
[3], 333.3 nM	–	0.999
[3], 1000 nM	–	0.797
[3], 3000 nM	–	0.929
[4], 4.1 nM	–	1.01
[4], 12.3 nM	–	1.01
[4], 37 nM	–	0.914
[4], 111.1 nM	–	1.03
[4], 333.3 nM	–	0.934
[4], 1000 nM	–	0.948
[4], 3000 nM	–	0.963
[5], 4.1 nM	–	0.865
[5], 12.3 nM	–	1.03
[5], 37 nM	–	1.02
[5], 111.1 nM	–	0.945
[5], 333.3 nM	–	0.985
[5], 1000 nM	–	1.07
[5], 3000 nM	–	0.96
[6], 4.1 nM	–	1.02
[6], 12.3 nM	–	0.857
[6], 37 nM	–	0.96
[6], 111.1 nM	–	1.02
[6], 333.3 nM	–	1.02
[6], 1000 nM	–	0.955
[6], 3000 nM	–	0.913
[7], 4.1 nM	–	0.85
[7], 12.3 nM	–	1.09
[7], 37 nM	–	0.982
[7], 111.1 nM	–	1.03
[7], 333.3 nM	–	0.935
[7], 1000 nM	–	1.03
[7], 3000 nM	–	0.879
[8], 4.1 nM	0.787	–
[8], 12.3 nM	0.437	–
[8], 37 nM	0.522	–
[8], 111.1 nM	0.344	–
[8], 333.3 nM	0.93	–
[8], 1000 nM	0.532	–
[8], 3000 nM	1.13	–
[9], 4.1 nM	0.696	–
[9], 12.3 nM	1.23	–
[9], 37 nM	0.463	–
[9], 111.1 nM	0.647	–
[9], 333.3 nM	1.03	–
[9], 1000 nM	0.986	–
[9], 3000 nM	1.02	–
[10], 4.1 nM	0.824	–
[10], 12.3 nM	0.817	–
[10], 37 nM	0.96	–
[10], 111.1 nM	0.816	–
[10], 333.3 nM	0.735	–
[10], 1000 nM	0.537	–
[10], 3000 nM	0.788	–
[11], 4.1 nM	0.513	–
[11], 12.3 nM	0.635	–
[11], 37 nM	0.742	–
[11], 111.1 nM	0.53	–
[11], 333.3 nM	0.573	–
[11], 1000 nM	0.615	–
[11], 3000 nM	1.13	–
[12], 4.1 nM	0.607	–
[12], 12.3 nM	0.891	–
[12], 37 nM	0.573	–
[12], 111.1 nM	0.373	–
[12], 333.3 nM	0.479	–
[12], 1000 nM	1.04	–
[12], 3000 nM	1.13	–
[13], 4.1 nM	3.49	–
[13], 12.3 nM	1.08	–
[13], 37 nM	0.937	–
[13], 111.1 nM	0.517	–
[13], 333.3 nM	0.679	–
[13], 1000 nM	0.478	–
[13], 3000 nM	1.36	–
[14], 4.1 nM	0.614	–
[14], 12.3 nM	0.686	–
[14], 37 nM	0.613	–
[14], 111.1 nM	0.671	–
[14], 333.3 nM	0.788	–
[14], 1000 nM	0.862	–
[14], 3000 nM	0.675	–

Nc1ncnc2c1c(-c1ccc(Oc3ccccc3)cc1)cn2C1CCCC1
Conditions	phenotypic distance	surviving fraction
[1], 4.1 nM	–	0.996
[1], 12.3 nM	–	1.07
[1], 37 nM	–	0.893
[1], 111.1 nM	–	0.884
[1], 333.3 nM	–	1.02
[1], 1000 nM	–	0.997
[1], 3000 nM	–	0.855
[2], 4.1 nM	–	1.06
[2], 12.3 nM	–	1.07
[2], 37 nM	–	0.999
[2], 111.1 nM	–	0.95
[2], 333.3 nM	–	0.97
[2], 1000 nM	–	0.936
[2], 3000 nM	–	0.884
[3], 4.1 nM	–	0.964
[3], 12.3 nM	–	1.04
[3], 37 nM	–	0.976
[3], 111.1 nM	–	0.901
[3], 333.3 nM	–	0.875
[3], 1000 nM	–	0.967
[3], 3000 nM	–	0.895
[4], 4.1 nM	–	1.23
[4], 12.3 nM	–	0.986
[4], 37 nM	–	1.18
[4], 111.1 nM	–	1.03
[4], 333.3 nM	–	0.93
[4], 1000 nM	–	0.958
[4], 3000 nM	–	0.916
[5], 4.1 nM	–	0.986
[5], 12.3 nM	–	1.06
[5], 37 nM	–	1.08
[5], 111.1 nM	–	1.06
[5], 333.3 nM	–	1.03
[5], 1000 nM	–	0.942
[5], 3000 nM	–	0.951
[6], 4.1 nM	–	0.864
[6], 12.3 nM	–	1.05
[6], 37 nM	–	1.03
[6], 111.1 nM	–	0.984
[6], 333.3 nM	–	0.967
[6], 1000 nM	–	1.01
[6], 3000 nM	–	0.85
[7], 4.1 nM	–	1.07
[7], 12.3 nM	–	0.954
[7], 37 nM	–	0.988
[7], 111.1 nM	–	0.704
[7], 333.3 nM	–	1.2
[7], 1000 nM	–	0.86
[7], 3000 nM	–	0.854
[8], 4.1 nM	0.425	–
[8], 12.3 nM	1.04	–
[8], 37 nM	0.606	–
[8], 111.1 nM	0.653	–
[8], 333.3 nM	0.532	–
[8], 1000 nM	0.572	–
[8], 3000 nM	0.738	–
[9], 4.1 nM	0.613	–
[9], 12.3 nM	0.704	–
[9], 37 nM	0.739	–
[9], 111.1 nM	0.965	–
[9], 333.3 nM	0.777	–
[9], 1000 nM	1.23	–
[9], 3000 nM	0.466	–
[10], 4.1 nM	0.487	–
[10], 12.3 nM	1.13	–
[10], 37 nM	0.764	–
[10], 111.1 nM	0.833	–
[10], 333.3 nM	1.17	–
[10], 1000 nM	0.824	–
[10], 3000 nM	0.929	–
[11], 4.1 nM	0.654	–
[11], 12.3 nM	0.927	–
[11], 37 nM	0.674	–
[11], 111.1 nM	0.841	–
[11], 333.3 nM	0.534	–
[11], 1000 nM	0.71	–
[11], 3000 nM	0.746	–
[12], 4.1 nM	0.461	–
[12], 12.3 nM	1.24	–
[12], 37 nM	1	–
[12], 111.1 nM	1.29	–
[12], 333.3 nM	0.478	–
[12], 1000 nM	0.867	–
[12], 3000 nM	0.813	–
[13], 4.1 nM	0.617	–
[13], 12.3 nM	0.6	–
[13], 37 nM	0.721	–
[13], 111.1 nM	0.773	–
[13], 333.3 nM	0.934	–
[13], 1000 nM	1.32	–
[13], 3000 nM	0.949	–
[14], 4.1 nM	0.587	–
[14], 12.3 nM	0.603	–
[14], 37 nM	0.442	–
[14], 111.1 nM	0.847	–
[14], 333.3 nM	0.677	–
[14], 1000 nM	0.737	–
[14], 3000 nM	0.765	–
